The source of these data is PMC5021521, “Coordinated recruitment of Spir actin nucleators and myosin V motors to Rab11 vesicle membranes” (eLife, 2016).

“Also recorded” adds a separate entry of the source. Ends that are not written are not given here.

Usually Kd stands for the concentration at which binding is half-saturated.

The subject of one assay is GFP-MyoVb-GTD. The experiment in a line: Co-immunoprecipitation from HEK293 cells. The class given is binding, Homo sapiens. As to conditions: anti-Myc co-IP, HEK293, immunoblot. Here is the method:
(§1) HEK293 cells were transfected with expression vectors encoding Myc-tagged Spir proteins and GFP-tagged myosin Va and myosin Vb fragments. 48 hr post transfection, cells were lysed in lysis buffer (25 mM Tris-HCl pH 7.4, 150 mM NaCl, 5 mM MgCl2, 10% (v/v) glycerol, 0.1% (v/v) Nonidet P-40, 1 mM Phenylmethylsulfonylfluorid (PMSF; Sigma-Aldrich), protease inhibitor cocktail (complete mini, EDTA-free; Roche, Penzberg, Germany)) and centrifuged at 20,000 x g, 4°C, 20 min to remove insoluble debris. The clarified supernatant was incubated with 4 µg anti-c-Myc antibody (9E10, mouse monoclonal; Santa Cruz Biotechnology; RRID: AB_627268) for 1 hr on ice. Subsequently, 40 µl Protein G-Agarose beads (1:1 suspension; Roche) were added and incubated for 2 hr at 4°C on a rotating wheel. Beads were washed with pulldown buffer (25 mM Tris-HCl pH 7.4, 150 mM NaCl, 5 mM MgCl2, 10% (v/v) glycerol, 0.1% (v/v) Nonidet P-40). Bound proteins were eluted with 1x Laemmli buffer and denatured for 10 min at 95°C, then analyzed by immunoblotting.

The next assay has as its system GST-Rab11a-Q70L. The assay can be described thus: GST-pulldown from HEK293 lysates. The class given is binding. As to conditions: N = 2. Here is the method: HEK293 cells were co-transfected with expression vectors encoding Myc-Spir-2-FL, mStrawberry-FMN2-FH2-FSI, eGFP-MyoVa-D-FL and eGFP-MyoVa-D-Q1753R, respectively. 24 hr post transfection, cells were lysed in lysis buffer (25 mM Tris-HCl pH 7.4, 150 mM NaCl, 5 mM MgCl2, 10% (v/v) glycerol, 0.1% (v/v) Nonidet P-40, 1 mM PMSF, protease inhibitor cocktail) and centrifuged at 20,000 x g, 4°C, 20 min to remove insoluble debris. For GST-pulldown assays 65 µg GST-Rab11a-Q70L protein (25 µg GST control) was coupled to GSH-Sepharose 4B beads (1:1 suspension) for 1 hr, 4°C on a rotating wheel. Beads were washed twice with pulldown buffer (25 mM Tris-HCl pH 7.4, 150 mM NaCl, 5 mM MgCl2, 10% (v/v) glycerol, 0.1% (v/v) Nonidet P-40) and subsequently incubated with the cell lysates for 2 hr at 4°C on a rotating wheel. Beads were washed four times with pulldown buffer and bound proteins were eluted with 1x Laemmli buffer and denatured at 95°C for 10 min, then were analyzed by immunoblotting.

A further assay has as its system GFP-MyoVa-GTD. The experiment in a line: Co-immunoprecipitation from HEK293 cells. The class given is binding, Mus musculus. The conditions noted are these: anti-Myc co-IP, HEK293, immunoblot, N = 2. The method, then:
as §1

The next assay relates to Spir-1. The experiment in a line: GST-pulldown from mouse brain lysates. As to conditions: 50 µg GST-fusion protein; immunoblot anti-Spir-1; N = 3. The class given is binding. The method, then: Wild-type C57BL/6 (Jackson Laboratory, Bar Harbor, ME, USA) mice were killed by cervical dislocation. The brain was isolated immediately, washed in cold PBS and lysed in lysis buffer (25 mM Tris-HCl pH 7.4, 150 mM NaCl, 5 mM MgCl2, 10% (v/v) glycerol, 0.1% (v/v) Nonidet P-40, 0.1 M NaF, 1 mM Na3VO4, 1 mM PMSF, protease inhibitor cocktail) using a TissueRuptor (Qiagen). Following incubation on ice for 45 min, the lysate was centrifuged at 20,000 x g, 4°C until the supernatant was clear. Brain lysates were incubated with GSH-Sepharose 4B beads, loaded with 50 µg GST-fusion proteins as indicated, for 2.5 hr at 4°C on a rotating wheel. Beads were washed five times with pulldown buffer and bound proteins were eluted by 1x Laemmli buffer and denatured at 95°C for 10 min. Pulled proteins were analyzed by immunoblotting.
For orientation: A western blot detects proteins with antibodies after separation by electrophoresis.

In the next assay the target is T1, GST-MyoVb-GTD (human, UniProt Q9ULV0 1467-1848).
T1 construct: myosin Vb globular tail domain, human, aa 1467-1848; also called GST-hs-MyoVb-GTD; pGex-4T1-NTEV-hs-MyoVb-GTD; source: E. coli Rosetta or Rosetta (DE3) pLysS, purified (GSH-Sepharose 4B, Superdex 200)
T1 sequence (looked up): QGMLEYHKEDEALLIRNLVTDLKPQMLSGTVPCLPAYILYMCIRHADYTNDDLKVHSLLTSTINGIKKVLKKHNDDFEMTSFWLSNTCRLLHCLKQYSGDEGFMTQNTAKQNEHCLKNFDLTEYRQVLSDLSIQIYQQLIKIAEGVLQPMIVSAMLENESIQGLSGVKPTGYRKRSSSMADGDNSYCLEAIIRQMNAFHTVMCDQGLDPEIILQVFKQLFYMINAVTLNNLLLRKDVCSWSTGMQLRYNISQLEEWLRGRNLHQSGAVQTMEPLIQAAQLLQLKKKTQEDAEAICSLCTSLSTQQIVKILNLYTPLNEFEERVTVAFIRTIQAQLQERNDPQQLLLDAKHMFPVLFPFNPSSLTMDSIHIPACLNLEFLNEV
The assay can be described thus: pull-down + other fluorescence titration; quantitative GST-pulldown: increasing GST-MyoVa/b-GTD on beads, 100 nM His6-mCherry-Spir-2-linker, 1x PBS with 50 mM NaCl; mCherry fluorescence left in the supernatant at 20°C; single-site fit. The conditions noted are these: both partners purified.

The target of a further assay is GST-MyoVa-GTD (mouse). Described as above.
The subject of a further assay is Rab11a-Q70L. The experiment in a line: GST-pulldown with purified proteins, tripartite complex. The class given is binding, Homo sapiens. The conditions noted are these: N = 3. Here is the method:
For GST-pulldown assays, 50 µg of GST-fusion protein was coupled to GSH-Sepharose 4B beads (1:1 suspension) for 1 hr at 4°C on a rotating wheel. Beads were washed twice with pulldown buffer and subsequently incubated with 20 µg His6-mCherry-fusion peptides for 2 hr, 4°C on a rotating wheel. In order to identify the tripartite Spir-2:MyoVa:Rab11a complex, 65 µg GST-Spir-2-GTBM-SB-FYVE was coupled to beads. Subsequently, beads were incubated with 40 µg MyoVa-GTD and 35 µg Rab11a-Q70L simultaneously for 2 hr. Beads were washed four times with pulldown buffer and bound proteins were eluted by 1x Laemmli buffer and denatured at 95°C for 10 min. Pulled proteins were analyzed by immunoblotting.

With “Spir-2: Myc-hs-Spir2 aa 2 - 714, full-length (QRPRPRVLLKAPTLAEMEEMNTSEEEE)”, the “co-precipitation / interaction with MyoVb-GTD in words” value is listed as “did interact with the GFP-MyoVb-GTD” in the assay with GFP-MyoVb-GTD and “co-precipitation” with GFP-MyoVb-GTD (listed as Myc-Spir-2). In the assay with GST-Rab11a-Q70L (HEK293 lysates over-expressing Myc-Spir-2, Straw-FMN2-FH2-FSI and GFP-MyoVa-FL), the “pulldown by GST-Rab11a-Q70L in words” value is “able to pull down Myc-Spir-2”. Besides, the “pulldown by GST-Rab11a-Q70L in words, with Q1753R mutant MyoVa” value in the assay with GST-Rab11a-Q70L (HEK293 lysates with GFP-MyoVa-Q1753R in place of GFP-MyoVa-FL) is on record as “Only faint”. Further, the “co-precipitation / interaction with MyoVa-GTD in words” value in the assay on GFP-MyoVa-GTD is “interacts”; with GFP-MyoVa-GTD (listed as Myc-Spir-2) it was “co-precipitation”.
As to “GST-FMN2-eFSI: GST-mm-FMN2-eFSI aa 1523 - 1578, positive control ({GST}-EFSSDFKDAWKKENKLILQERVKEAEEVCRQKKGKSLYKVKPRHDSGIKAKISMKT) [reference compound]”, the “pulldown of endogenous Spir-1 in words” value with Spir-1 was “able to pull endogenous Spir-1 from mouse brain lysates”.

B1: GST-MyoVb-GTD: GST-hs-MyoVb-GTD aa 1467 - 1848 (protein)
chain: T1 sequence (looked up)
modifications: left off: GST, end not stated, kept
Consider B1, for which the “pulldown of endogenous Spir-1 in words” value in the assay with Spir-1 is “able to pull endogenous Spir-1 from mouse brain lysates”.

B2: His6-mCherry-Spir-2-linker (domain or fragment, human, UniProt Q8WWL2 361-519, looked up)
chain: GEGWAARGFGSLPCILNACSGDAKSTSCINLSVTDAGGSAQRPRPRVLLKAPTLAEMEEMNTSEEEESPCGEVTLKRDRSFSEHDLAQLRSEVASGLQSATHPPGGTEPPRPRAGSAHVWRPGSRDQGTCPASVSDPSHPLLSNRGSSGDRPEASMTPD
notes: Spir-2 central linker region, human, aa 361-519; also called His-mCherry-Spir2-linker; His6-mCherry-hs-Spir2-linker; source: E. coli (Rosetta or Rosetta (DE3) pLysS; BL21(DE3)), purified (Ni-NTA, Superdex 200); not shown: His6, N-terminal, kept; mCherry, N-terminal, kept
Regarding B2, the Kd is roughly 377 nM in the assay with GST-MyoVb-GTD and 728 nM with GST-MyoVa-GTD (mouse).

B3: GST-Spir-2-GTBM-SB-FYVE: GST-hs-Spir2-GTBM-SB-FYVE aa 361 - 714 (protein)
chain: GEGWAARGFGSLPCILNACSGDAKSTSCINLSVTDAGGSAQRPRPRVLLKAPTLAEMEEMNTSEEEESPCGEVTLKRDRSFSEHDLAQLRSEVASGLQSATHPPGGTEPPRPRAGSAHVWRPGSRDQGTCPASVSDPSHPLLSNRGSSGDRPEASMTPDAKHLWLEFSHPVESLALTVEEVMDVRRVLVKAEMEKFLQNKELFSSLKKGKICCCCRAKFPLFSWPPSCLFCKRAVCTSCSIKMKMPSKKFGHIPVYTLGFESPQRVSAAKTAPIQRRDIFQSLQGPQWQSVEEAFPHIYSHGCVLKDVCSECTSFVADVVRSSRKSVDVLNTTPRRSRQTQSLYIPNTRTLDFK
modifications: left off: GST, end not stated, kept
On to B3, for which the “pulldown of Rab11a-Q70L in words” value in the assay with Rab11a-Q70L (in the presence of MyoVa-GTD) is on record as “allows GST-Spir-2-GTBM-SB-FYVE to pull Rab11a-Q70L”; in the assay on Rab11a-Q70L (without MyoVa-GTD) it was “does not interact with Rab11a-Q70L; also recorded: does not pull down Rab11a-Q70L”.
